{"source": "paper PMC7206119", "about": "“RIP1 inhibition blocks inflammatory diseases but not tumor growth or metastases” (Cell Death and Differentiation, 2019)", "assay_in_all_cases": "biochemical", "parameters_in_all_cases": "DiscoverX kinase panel, active-site competition binding (KINOMEscan type), percent of control at one concentration", "conditions_in_all_cases": "competition binding, percent of control", "key": {"[1]": {"molecular_target": "STK35 (Homo sapiens, UniProt Q8TDR2)", "sequence (Q8TDR2 whole entry)": "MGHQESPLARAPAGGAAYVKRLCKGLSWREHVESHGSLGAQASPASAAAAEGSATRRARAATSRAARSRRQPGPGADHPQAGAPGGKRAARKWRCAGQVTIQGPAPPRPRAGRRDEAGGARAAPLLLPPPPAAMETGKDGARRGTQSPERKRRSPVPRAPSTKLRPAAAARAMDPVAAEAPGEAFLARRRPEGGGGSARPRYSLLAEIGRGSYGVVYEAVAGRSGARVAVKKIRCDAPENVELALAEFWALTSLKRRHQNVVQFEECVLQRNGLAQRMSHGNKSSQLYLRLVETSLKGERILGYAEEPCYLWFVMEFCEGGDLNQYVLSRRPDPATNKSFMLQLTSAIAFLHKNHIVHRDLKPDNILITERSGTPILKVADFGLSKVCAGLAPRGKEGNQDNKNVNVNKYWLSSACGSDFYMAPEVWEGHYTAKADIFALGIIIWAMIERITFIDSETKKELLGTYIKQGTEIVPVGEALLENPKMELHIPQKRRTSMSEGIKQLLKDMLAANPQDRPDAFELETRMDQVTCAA"}, "[2]": {"molecular_target": "T1, VPS34 (Homo sapiens, UniProt Q8NEB9)", "T1 construct": "gene PIK3C3"}, "[3]": {"molecular_target": "T2, ASK1 (Homo sapiens, UniProt Q99683)", "T2 construct": "gene MAP3K5", "T2 sequence (Q99683 whole entry)": "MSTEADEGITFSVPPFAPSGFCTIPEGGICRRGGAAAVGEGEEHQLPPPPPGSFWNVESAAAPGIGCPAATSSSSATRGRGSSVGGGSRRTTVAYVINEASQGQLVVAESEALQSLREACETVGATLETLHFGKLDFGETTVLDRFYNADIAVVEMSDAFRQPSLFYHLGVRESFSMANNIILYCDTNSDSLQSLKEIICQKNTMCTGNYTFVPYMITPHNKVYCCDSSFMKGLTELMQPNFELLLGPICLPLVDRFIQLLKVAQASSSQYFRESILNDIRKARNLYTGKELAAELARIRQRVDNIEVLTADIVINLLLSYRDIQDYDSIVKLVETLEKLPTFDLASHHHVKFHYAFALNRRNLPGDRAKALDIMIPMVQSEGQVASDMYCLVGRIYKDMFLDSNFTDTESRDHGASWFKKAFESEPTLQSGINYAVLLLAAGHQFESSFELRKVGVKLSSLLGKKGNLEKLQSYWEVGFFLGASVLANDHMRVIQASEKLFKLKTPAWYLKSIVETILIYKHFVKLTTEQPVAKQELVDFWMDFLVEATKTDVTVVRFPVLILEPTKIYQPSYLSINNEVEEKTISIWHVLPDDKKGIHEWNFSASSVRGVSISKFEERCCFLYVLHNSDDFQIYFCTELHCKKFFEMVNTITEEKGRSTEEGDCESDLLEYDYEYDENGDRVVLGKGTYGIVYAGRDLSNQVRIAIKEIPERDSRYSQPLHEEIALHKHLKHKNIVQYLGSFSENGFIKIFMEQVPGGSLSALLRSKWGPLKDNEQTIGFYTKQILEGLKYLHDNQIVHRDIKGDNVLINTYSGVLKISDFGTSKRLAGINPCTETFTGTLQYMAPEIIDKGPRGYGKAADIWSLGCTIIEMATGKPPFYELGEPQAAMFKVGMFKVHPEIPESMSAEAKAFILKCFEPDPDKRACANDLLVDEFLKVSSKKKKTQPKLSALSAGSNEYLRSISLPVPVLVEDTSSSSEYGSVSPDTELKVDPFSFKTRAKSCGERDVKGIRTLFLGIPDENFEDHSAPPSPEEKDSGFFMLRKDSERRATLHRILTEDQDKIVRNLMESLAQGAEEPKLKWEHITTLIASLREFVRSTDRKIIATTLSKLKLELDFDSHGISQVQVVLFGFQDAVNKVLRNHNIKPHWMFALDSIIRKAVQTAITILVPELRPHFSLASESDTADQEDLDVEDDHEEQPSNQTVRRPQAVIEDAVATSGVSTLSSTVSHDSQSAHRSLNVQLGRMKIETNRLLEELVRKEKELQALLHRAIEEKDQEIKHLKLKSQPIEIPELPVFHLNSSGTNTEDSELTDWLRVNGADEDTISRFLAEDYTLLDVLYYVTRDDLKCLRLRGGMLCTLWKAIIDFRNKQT"}, "[4]": {"molecular_target": "CDKL5 (Homo sapiens, UniProt O76039)"}, "[5]": {"molecular_target": "T3, PCTK2 (Homo sapiens, UniProt Q00537)", "T3 construct": "gene CDK17", "T3 sequence (Q00537 whole entry)": "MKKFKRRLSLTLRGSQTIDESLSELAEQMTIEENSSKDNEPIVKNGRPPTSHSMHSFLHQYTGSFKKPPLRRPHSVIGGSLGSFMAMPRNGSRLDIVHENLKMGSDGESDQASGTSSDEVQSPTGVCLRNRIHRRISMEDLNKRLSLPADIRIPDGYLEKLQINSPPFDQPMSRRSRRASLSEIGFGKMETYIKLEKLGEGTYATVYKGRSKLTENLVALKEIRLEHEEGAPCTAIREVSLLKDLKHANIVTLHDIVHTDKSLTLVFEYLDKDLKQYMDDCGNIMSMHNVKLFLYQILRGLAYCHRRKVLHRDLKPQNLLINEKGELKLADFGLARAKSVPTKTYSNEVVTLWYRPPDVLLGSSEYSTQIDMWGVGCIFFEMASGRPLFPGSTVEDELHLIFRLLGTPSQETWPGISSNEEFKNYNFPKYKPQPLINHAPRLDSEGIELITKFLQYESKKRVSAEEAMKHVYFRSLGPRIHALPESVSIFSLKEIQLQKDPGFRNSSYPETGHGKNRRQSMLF"}, "[6]": {"molecular_target": "T4, RPS6KA4(Kin.Dom.1-N-terminal) (Homo sapiens, UniProt O75676)", "T4 construct": "Kin.Dom.1-N-terminal", "T4 sequence (O75676 whole entry)": "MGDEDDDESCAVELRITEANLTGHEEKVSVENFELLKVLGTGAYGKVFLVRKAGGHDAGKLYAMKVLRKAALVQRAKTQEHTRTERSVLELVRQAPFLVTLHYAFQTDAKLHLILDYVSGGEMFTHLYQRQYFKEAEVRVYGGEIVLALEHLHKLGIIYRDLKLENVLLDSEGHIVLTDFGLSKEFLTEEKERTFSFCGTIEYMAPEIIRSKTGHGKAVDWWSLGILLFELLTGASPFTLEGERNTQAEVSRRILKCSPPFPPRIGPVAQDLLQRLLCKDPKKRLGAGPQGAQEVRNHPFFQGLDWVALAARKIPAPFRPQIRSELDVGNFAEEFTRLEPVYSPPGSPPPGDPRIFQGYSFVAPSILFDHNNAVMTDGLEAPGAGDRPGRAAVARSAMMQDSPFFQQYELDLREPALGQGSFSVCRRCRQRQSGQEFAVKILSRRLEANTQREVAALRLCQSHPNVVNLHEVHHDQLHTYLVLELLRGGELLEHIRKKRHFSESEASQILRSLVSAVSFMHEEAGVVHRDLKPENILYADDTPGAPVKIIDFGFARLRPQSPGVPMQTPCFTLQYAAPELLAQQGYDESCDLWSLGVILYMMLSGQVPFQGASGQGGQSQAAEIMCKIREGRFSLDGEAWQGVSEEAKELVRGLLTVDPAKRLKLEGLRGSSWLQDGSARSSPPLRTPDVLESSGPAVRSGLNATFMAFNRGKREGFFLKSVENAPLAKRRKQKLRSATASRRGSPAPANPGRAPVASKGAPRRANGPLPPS"}, "[7]": {"molecular_target": "AURKA (Homo sapiens, UniProt O14965)"}, "[8]": {"molecular_target": "T5, JNK3 (Homo sapiens, UniProt P53779)", "T5 construct": "gene MAPK10", "T5 sequence (P53779 whole entry)": "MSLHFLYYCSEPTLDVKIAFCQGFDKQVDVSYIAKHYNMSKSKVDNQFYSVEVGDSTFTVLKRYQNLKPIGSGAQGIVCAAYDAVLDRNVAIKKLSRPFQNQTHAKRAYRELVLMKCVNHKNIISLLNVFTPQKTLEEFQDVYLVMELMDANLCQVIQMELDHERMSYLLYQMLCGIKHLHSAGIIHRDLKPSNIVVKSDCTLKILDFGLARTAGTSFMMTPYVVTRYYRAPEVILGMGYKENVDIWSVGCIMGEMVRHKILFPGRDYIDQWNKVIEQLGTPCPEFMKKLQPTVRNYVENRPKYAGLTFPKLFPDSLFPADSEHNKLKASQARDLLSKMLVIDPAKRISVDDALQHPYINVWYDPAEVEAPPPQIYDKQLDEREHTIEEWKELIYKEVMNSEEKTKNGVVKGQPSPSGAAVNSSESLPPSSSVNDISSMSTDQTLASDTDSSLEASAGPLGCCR"}, "[9]": {"molecular_target": "MYO3B (Homo sapiens, UniProt Q8WXR4)"}, "[10]": {"molecular_target": "PRKX (Homo sapiens, UniProt P51817)"}, "[11]": {"molecular_target": "MKNK1 (Homo sapiens, UniProt Q9BUB5)"}, "[12]": {"molecular_target": "SNRK (Homo sapiens, UniProt Q9NRH2)"}, "[13]": {"molecular_target": "NEK5 (Homo sapiens, UniProt Q6P3R8)", "sequence (Q6P3R8 whole entry)": "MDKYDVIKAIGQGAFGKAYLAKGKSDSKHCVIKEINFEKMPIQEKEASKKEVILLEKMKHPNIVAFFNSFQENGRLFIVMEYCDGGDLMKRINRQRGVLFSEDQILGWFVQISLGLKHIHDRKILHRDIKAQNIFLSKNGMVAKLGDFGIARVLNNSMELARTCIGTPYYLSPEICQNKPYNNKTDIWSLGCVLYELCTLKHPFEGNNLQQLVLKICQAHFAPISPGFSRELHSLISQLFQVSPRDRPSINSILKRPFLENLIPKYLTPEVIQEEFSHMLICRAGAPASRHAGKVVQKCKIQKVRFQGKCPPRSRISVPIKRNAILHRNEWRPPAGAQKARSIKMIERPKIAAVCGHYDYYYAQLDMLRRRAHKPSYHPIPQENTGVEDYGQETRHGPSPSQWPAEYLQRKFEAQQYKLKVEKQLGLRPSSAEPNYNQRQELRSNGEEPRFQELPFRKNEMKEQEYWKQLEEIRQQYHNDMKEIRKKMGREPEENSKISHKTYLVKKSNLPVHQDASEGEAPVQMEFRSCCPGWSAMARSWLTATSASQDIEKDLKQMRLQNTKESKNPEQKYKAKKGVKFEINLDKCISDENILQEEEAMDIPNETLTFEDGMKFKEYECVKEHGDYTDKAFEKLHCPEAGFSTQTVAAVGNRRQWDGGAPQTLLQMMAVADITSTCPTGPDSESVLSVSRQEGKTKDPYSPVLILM"}, "[14]": {"molecular_target": "PRKG2 (Homo sapiens, UniProt Q13237)"}, "[15]": {"molecular_target": "T6, NDR2 (Homo sapiens, UniProt Q9Y2H1)", "T6 construct": "gene STK38L"}, "[16]": {"molecular_target": "NEK6 (Homo sapiens, UniProt Q9HC98)"}, "[17]": {"molecular_target": "CDK9 (Homo sapiens, UniProt P50750)"}, "[18]": {"molecular_target": "CAMK4 (Homo sapiens, UniProt Q16566)", "sequence (Q16566 whole entry)": "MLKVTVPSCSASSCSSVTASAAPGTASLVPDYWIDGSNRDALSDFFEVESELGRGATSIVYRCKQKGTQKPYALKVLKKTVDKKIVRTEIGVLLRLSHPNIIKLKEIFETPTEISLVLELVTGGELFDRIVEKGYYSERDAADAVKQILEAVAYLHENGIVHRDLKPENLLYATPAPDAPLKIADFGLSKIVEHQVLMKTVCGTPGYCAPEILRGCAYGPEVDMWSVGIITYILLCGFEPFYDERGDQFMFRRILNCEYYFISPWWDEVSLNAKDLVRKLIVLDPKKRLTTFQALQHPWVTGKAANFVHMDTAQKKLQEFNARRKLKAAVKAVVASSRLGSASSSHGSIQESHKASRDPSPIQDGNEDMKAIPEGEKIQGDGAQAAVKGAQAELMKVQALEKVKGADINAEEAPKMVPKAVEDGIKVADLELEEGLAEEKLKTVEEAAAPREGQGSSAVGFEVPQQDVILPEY"}, "[19]": {"molecular_target": "PRKCH (Homo sapiens, UniProt P24723)"}, "[20]": {"molecular_target": "T7, ERK3 (Homo sapiens, UniProt Q16659)", "T7 construct": "gene MAPK6"}, "[21]": {"molecular_target": "MARK3 (Homo sapiens, UniProt P27448)"}}}
{"compound": "COc1cc2c(cn1)N(C)C(=O)[C@@H](NC(=O)c1nc3n(n1)[C@H](c1ccccc1)CC3)CC2", "note": "[GNE684, (S)-N-((S)-7-methoxy-1-methyl-2-oxo-2,3,4,5-tetrahydro-1H-pyrido[3,4-b]azepin-3-yl)-5-phenyl-6,7-dihydro-5H-pyrrolo[1,2-b][1,2,4]triazole-2-carboxamide]", "values": [{"measurement": "remaining binding at 10 µM", "setting": "[1]", "value": 100, "unit": "%"}, {"measurement": "remaining binding at 10 µM", "setting": "[2]", "value": 100, "unit": "%"}, {"measurement": "remaining binding at 10 µM", "setting": "[3]", "value": 97, "unit": "%"}, {"measurement": "remaining binding at 10 µM", "setting": "[4]", "value": 79, "unit": "%"}, {"measurement": "remaining binding at 10 µM", "setting": "[5]", "value": 100, "unit": "%"}, {"measurement": "remaining binding at 10 µM", "setting": "[6]", "value": 75, "unit": "%"}, {"measurement": "remaining binding at 10 µM", "setting": "[7]", "value": 96, "unit": "%"}, {"measurement": "remaining binding at 10 µM", "setting": "[8]", "value": 98, "unit": "%"}, {"measurement": "remaining binding at 10 µM", "setting": "[9]", "value": 89, "unit": "%"}, {"measurement": "remaining binding at 10 µM", "setting": "[10]", "value": 99, "unit": "%"}, {"measurement": "remaining binding at 10 µM", "setting": "[11]", "value": 100, "unit": "%"}, {"measurement": "remaining binding at 10 µM", "setting": "[12]", "value": 93, "unit": "%"}, {"measurement": "remaining binding at 10 µM", "setting": "[13]", "value": 100, "unit": "%"}, {"measurement": "remaining binding at 10 µM", "setting": "[14]", "value": 94, "unit": "%"}, {"measurement": "remaining binding at 10 µM", "setting": "[15]", "value": 100, "unit": "%"}, {"measurement": "remaining binding at 10 µM", "setting": "[16]", "value": 85, "unit": "%"}, {"measurement": "remaining binding at 10 µM", "setting": "[17]", "value": 97, "unit": "%"}, {"measurement": "remaining binding at 10 µM", "setting": "[18]", "value": 86, "unit": "%"}, {"measurement": "remaining binding at 10 µM", "setting": "[19]", "value": 89, "unit": "%"}, {"measurement": "remaining binding at 10 µM", "setting": "[20]", "value": 100, "unit": "%"}, {"measurement": "remaining binding at 10 µM", "setting": "[21]", "value": 100, "unit": "%"}]}
